Reference: publication PMC10979476, “Molecular Deformation Is a Key Factor in Screening Aggregation Inhibitor for Intrinsically Disordered Protein Tau” (ACS Central Science, 2024)

Columns and labels:
[1] = test system: SK-N-SH cells; test: CCK-8 cell survival assay; type: cell-based, human; settings: 24 h; for cytotoxicity (in words): different concentrations, SK-N-SH cells
Description: After the above-mentioned systematic study of SAR at the molecular level, we wondered whether these inhibitory effects can be reproduced in the actual biological system, laying the foundation for the discovery of drug lead compounds. Therefore, the cytotoxicity and inhibitory effects of these synthetic compounds were evaluated by human neuroblastoma SK-N-SH cells. […] The cell viability of SK-N-SH was assessed using a cell counting kit-8 (CCK-8) assay.[48] It could be seen that the cell survival rate was still higher than 70% when the concentration of IPP1 reached 30 μM. […]
11. In Vitro Cellular Uptake and Cell Cytotoxicity.
Cell viability was assessed using Cell Counting Kit-8 (CCK-8) assay following the manufacturer’s instructions. SK-N-SH cells were seeded at a density of 2.0 × 10^4 cells per well in a 96-well plate and incubated for 24 h to adhere in a humidified chamber. Then, the cells were treated with various concentrations of compounds IPP1~IPP4 for 24 h. After that, the culture supernatants were removed, and 90 μL of medium and 10 μL of CCK-8 solution were then added. After further incubation for 3 h at 37 °C, the absorbance was measured at 450 nm using Microplate Reader 581 (SpectraMax iD3). Six replicates were used in each group.
12. In Vitro Evaluation of Inhibitory Effects of Inhibitor on Tau Aggregation In SK-N-SH Cell.
The effect of inhibitors on the formation of aggregate tau in SK-N-SH was tested by using the previously reported method15. First, SK-N-SH was grown on glass coverslips in 12-well plate at a […]

[2] = molecular target: T1, tau hexapeptide VQIVYK (Homo sapiens, UniProt P10636); test: Heparin-induced aggregation of tau hexapeptide VQIVYK, fluorescence assay; type: biochemical; settings: VQIVYK 15 μM, Figure S15
T1 construct: 306VQIVYK311(15 μM), ThS, VQIVYK+heparin
Source text: The carbonyl group in five-membered ring A in IPP1 forms a hydrogen bond with the amino group on glutamine (GLN307), valine (VAL309), and tyrosine (TYR310). The nitrogen atom in pyridine ring C in IPP1 also forms a hydrogen bond with the amino group of isoleucine (ILE308). Pyridine ring C on IPP1 forms π–π stacking with the benzene ring on TYR310. The five-membered ring A in IPP1 also forms hydrophobic contacts with glycine (GLY304), VAL306, and VAL309, which further increases the interaction between the molecule IPP1 and tau. […] Visually, IPP1 is like a molecular clip that firmly holds the key region, preventing the peptide from freely curling/folding and increasing the possibility to inhibit aggregation. […] As a result, the effective interactions between these compounds and tau peptide chains are much less than those of IPP1. […] To verify the docking results, we directly applied IPP1 to the aggregation of tau hexapeptide VQIVYK (Figure S15). […] The positive experimental results of IPP1 inhibition on tau hexapeptide further confirmed the reliability of our theoretical speculation on the target segment. […]
17. The fluorescence spectra of peptide fragments systems in the presence or absence of IPP1
Figure S15. The fluorescence spectra of peptide fragments systems containing […]

Compound	cell survival rate ([1]; 30 μM, tau-infected SK-N-SH cells)	cytotoxicity (in words) [1]	aggregation of tau hexapeptide induced by heparin [2]
O=C1Nc2cccc(-c3ccc(N4CCCC4)nc3)c2C1=O [IPP1, 4-(6-(pyrrolidin-1-yl)pyridin-3-yl)indoline-2,3-dione]	higher than 70%	relatively low cytotoxicity	significantly reduced the aggregation of tau hexapeptide
O=C1Nc2ccc(-c3ccc(N4CCCC4)nc3)cc2C1=O [IPP2, 5-(6-(pyrrolidin-1-yl)pyridin-3-yl)indoline-2,3-dione]		lowest cytotoxicity	
O=C1Nc2cc(-c3ccc(N4CCCC4)nc3)ccc2C1=O [IPP3, 6-(6-(pyrrolidin-1-yl)pyridin-3-yl)indoline-2,3-dione]		toxicity is not negligible	
